Data as given in PMC8389922, “First-in-Class Cyclic Temporin L Analogue: Design, Synthesis, and Antimicrobial Assessment” (Journal of Medicinal Chemistry, 2021).
Bridge positions count the residues as written; N and C are the ends. Square brackets hold non-standard residues; d marks the D form. Peptide text beside a SMILES is read from it.

How the values were obtained:
[1] = Membrane fluidity, Laurdan GP value; conditions: lipid 100 μM, Laurdan 1 μM, PBS pH 7.4, 25 °C, 10 min; for GPlaurdan DOPG/DOPE/CL + cmpd: LUVs alone –0.14; for GPlaurdan DOPG/CL + cmpd: LUVs alone –0.32
Procedure: A membrane fluidity study was performed using Laurdan, a probe with the capacity to insert into membranes and to distribute between liquid phases,[66] changing its emission spectrum.[67] In particular, the maximum emission wavelength of Laurdan is 490 nm when phospholipids are in a disordered phase and it shifts to 440 nm when lipids are in a more packed phase. The generalized polarization (GP) parameter was used to measure quantitatively the emission shift of the Laurdan probe.[68] […] LUVs fluidity was evaluated before and after the addition of 12 and 9 at 25 °C. Before the addition of both peptides, emission of LUVs, mimicking both Gram-positive and Gram-negative membranes, indicated the presence of a disordered phase with a maximum at 490 nm (Table 3). […] In fact, GP parameter indicated the presence of a disordered phase for both Gram-positive and Gram-negative liposomes (Table 3).
Laurdan is extensively used as a fluorescent probe in membrane fluidity study.[79] Laurdan emission spectra encapsulated in large unilamellar vesicles (LUVs) are centered at 490 nm when the lipids are in a disordered phase and the emission shifts to 440 nm when the lipids are in a more packed phase. The preparation of LUVs was performed using the extrusion method.[79] To mimic the lipid composition of Gram-positive and Gram-negative membranes, we used LUVs made of DOPG/CL (58/42 ratio in moles) and DOPG/DOPE/CL (63/23/12 ratio in moles), respectively. First, stock solutions of lipids in chloroform were prepared and the assay was performed using a final lipid concentration of 100 μM. Laurdan (1 μM) was added to chloroform/lipids solution before the evaporation of organic solvent. The mixture of lipids and probe was dried under nitrogen gas stream and freeze-dried overnight. Then, lipid film with Laurdan was hydrated with PBS 1× buffer, pH = 7.4, vortexed for 1 h, and freeze-thawed six times and extruded 10 times through polycarbonate membranes with 0.1 μm diameter pores, obtaining LUVs with encapsulated Laurdan. Stock solutions of 2 mM of linear peptide 9 and lactam-bridged analogue 12 were prepared by dissolving peptides in water. The influence of peptides on membrane fluidity was evaluated at 5 and 30 μM. The peptide was added to LUVs + Laurdan probe, and after 10 min, the fluorescence spectra were recorded using a 1 cm path length quartz cell, thermostated at 25 °C. To measure the Laurdan emission shift and to quantify the variation of membrane fluidity, we calculated the generalized polarization (GP) as GP = (I440 – I490)/(I440 + I490).

[2] = CD in SUVs, ratio of ellipticities at 222 and 208 nm; type: physicochemical; conditions: peptide 8 μM, lipid 100 μM, phosphate buffer 5 mM pH 7.4, 25 °C, >1.0 indicates oligomeric helices
Description: TEXT PRINTED IN THE PICTURE: (c) 9: DOPG/CL mimicking Gram-positive membrane: θ222/ θ208: 1.7 | (c) 12: DOPG/CL mimicking Gram-positive membrane: θ222/ θ208: 2.6 | (c) 17: DOPG/CL mimicking Gram-positive membrane: θ222/ θ208: 1.9 | (f) 9: DOPE/DOPG/CL mimicking Gram-negative membrane: θ222/ θ208: 1.8 | (f) 12: DOPE/DOPG/CL mimicking Gram-negative membrane: θ222/ θ208: 2.1 | (f) 17: DOPE/DOPG/CL mimicking Gram-negative membrane: θ222/ θ208: 1.7
The ratio of the ellipticities at 222 and 208 nm was calculated to discriminate between monomeric and oligomeric states of helices.[64] As observed in our CD spectra, the ratio θ222/θ208 is always greater than 1.0 in both membranes, indicating an α-helical conformation in its oligomeric state (Figure 4c,f).
SUVs were prepared as reported: lipids (Gram-positive, DOPG/CL, 58/42 ratio in moles; Gram-negative DOPG/DOPE/CL, 63/23/12 ratio in moles) were dissolved in chloroform and an identical volume of peptide solution dissolved in TFE was added.[76] Then, the samples were vortexed and lyophilized overnight. CD spectra were recorded at a peptide concentration of 8 μM and at a lipid final concentration of 100 μM. […] CD spectra were recorded at 25 °C on a Jasco J-715 spectropolarimeter in a 1 cm quartz cell using three consecutive scans from 260 to 190 nm, 3 nm bandwidth, a time constant of 16 s, and a scan rate of 10 nm/min.

| SMILES | GPlaurdan DOPG/DOPE/CL + cmpd ([1]; peptide 5 μM) | GPlaurdan DOPG/CL + cmpd ([1]; peptide 5 μM) | GPlaurdan DOPG/DOPE/CL + cmpd ([1]; peptide 30 μM) | GPlaurdan DOPG/CL + cmpd ([1]; peptide 30 μM) | θ222/θ208 ([2]; CD in DOPE/DOPG/CL SUVs) | θ222/θ208 ([2]; CD in DOPG/CL SUVs) |
| --- | --- | --- | --- | --- | --- | --- |
| CC[C@H](C)[C@H](NC(=O)[C@H](CCCNC(=N)N)NC(=O)[C@@H]1CCC(=O)NCCCC[C@H](NC(=O)[C@H](Cc2ccccc2)NC(=O)[C@H](Cc2c[nH]c3ccccc23)NC(=O)[C@@H]2CCCN2C(=O)[C@@H](NC(=O)[C@@H](N)Cc2ccccc2)C(C)C)C(=O)N[C@@H](CCCCN)C(=O)N[C@@H](Cc2ccccc2)C(=O)N[C@H](CC(C)C)C(=O)N1)C(=O)N[C@@H](CC(C)C)C(N)=O [compound 12] (H-FVPWFKKF[dL]ERIL-NH2; lactam 6-10) | –0.07 | –0.23 | 0.1 | 0.04 |  |  |
| CC[C@H](C)[C@H](NC(=O)[C@H](CCCNC(=N)N)NC(=O)[C@@H]1CCCCn2cc(nn2)C[C@H](NC(=O)[C@H](Cc2ccccc2)NC(=O)[C@H](Cc2c[nH]c3ccccc23)NC(=O)[C@@H]2CCCN2C(=O)[C@@H](NC(=O)[C@@H](N)Cc2ccccc2)C(C)C)C(=O)N[C@@H](CCCCN)C(=O)N[C@@H](Cc2ccccc2)C(=O)NC(CC(C)C)C(=O)N1)C(=O)N[C@@H](CC(C)C)C(N)=O (stereo in doubt) [compound 17] |  |  |  |  | 1.7 | 1.9 |
